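Test compounds were applied to cells in 96-well plates for 48 hours at 5 doses. Abbreviation: GI50, concentration required for 50% inhibition of growth.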 Activity calls are given as the source filed them. Rule as the data show it: active = GI50 up to about 1.1 µM and inactive = higher.
Key:
Assay in all cases: inhibition of tumour cell growth, NCI panel, 48 h
A498 = test system: A498
ACHN = test system: ACHN
HOP-92 = test system: HOP-92
IGROV-1 = test system: IGROV-1
KM12 = test system: KM12
MOLT-4 = test system: MOLT-4
Malme-3M = test system: Malme-3M
NCI-H226 = test system: NCI-H226
NCI-H522 = test system: NCI-H522
OVCAR-4 = test system: OVCAR-4
OVCAR-5 = test system: OVCAR-5
RXF 393 = test system: RXF 393
SF-539 = test system: SF-539
SK-MEL-28 = test system: SK-MEL-28
SK-MEL-5 = test system: SK-MEL-5
SK-OV-3 = test system: SK-OV-3
T47D = test system: T47D
TK-10 = test system: TK-10
UACC-257 = test system: UACC-257
UACC-62 = test system: UACC-62

SMILES | GI50 (A498) | GI50 (ACHN) | GI50 (HOP-92) | GI50 (IGROV-1) | GI50 (KM12) | GI50 (MOLT-4) | GI50 (Malme-3M) | GI50 (NCI-H226) | GI50 (NCI-H522) | GI50 (OVCAR-4) | GI50 (OVCAR-5) | GI50 (RXF 393) | GI50 (SF-539) | GI50 (SK-MEL-28) | GI50 (SK-MEL-5) | GI50 (SK-OV-3) | GI50 (T47D) | GI50 (TK-10) | GI50 (UACC-257) | GI50 (UACC-62)
CCCCCCCCCC[C@@H](O)[C@H]1CC[C@H]([C@H]2CC[C@H]([C@H](O)CCCCCCCCCC[C@@H]3CC(CC(C)=O)C(=O)O3)O2)O1 (stereo not given in full) | > 28.5 µM (inactive) | > 28.5 µM (inactive) | > 50 µM (inactive) | > 34.4 µM (inactive) | 15.8 µM (inactive) | 3.77 µM (inactive) | 16 µM (inactive) | 23.8 µM (inactive) | 7.87 µM (inactive) | 28.7 µM (inactive) | > 50 µM (inactive) | 20.7 µM (inactive) | 17.3 µM (inactive) | > 50 µM (inactive) | 0.0929 µM (active) | 31.8 µM (inactive) | > 17.2 µM (inactive) | > 39.4 µM (inactive) | 0.914 µM (active) | 1.11 µM (active)
O=C1c2ccccc2C(=O)c2c(NC(=O)C(Cl)CCl)cccc21 (stereo not given) | 19.2 µM (inactive) | 13.8 µM (inactive) | 3.97 µM (inactive) | 5.02 µM (inactive) | 2.58 µM (inactive) | < 0.0353 µM (active) | 18.7 µM (inactive) | 17.5 µM (inactive) | 2.16 µM (inactive) | 10.7 µM (inactive) | 15.6 µM (inactive) | 6.64 µM (inactive) | 4.83 µM (inactive) | 17.2 µM (inactive) | 9.66 µM (inactive) | 19 µM (inactive) | 2.75 µM (inactive) | 4.37 µM (inactive) | 14.7 µM (inactive) | 10.1 µM (inactive)
CC(C)(C)OC(=O)NCC(=O)NC1CC=CCC1NC(=O)CNC(=O)OC(C)(C)C (stereo not given) | > 100 µM (inactive) | > 100 µM (inactive) | > 100 µM (inactive) | > 100 µM (inactive) | > 100 µM (inactive) | > 100 µM (inactive) | > 100 µM (inactive) | > 100 µM (inactive) | > 100 µM (inactive) | > 100 µM (inactive) | > 100 µM (inactive) | > 100 µM (inactive) | > 100 µM (inactive) | > 100 µM (inactive) | > 100 µM (inactive) | > 100 µM (inactive) | > 100 µM (inactive) | > 100 µM (inactive) | > 100 µM (inactive) | > 100 µM (inactive)
CN(C)CCCN1c2ccccc2Sc2cnccc21 | 31 µM (inactive) | 52.8 µM (inactive) | 61 µM (inactive) | > 100 µM (inactive) | > 100 µM (inactive) | 60 µM (inactive) | > 100 µM (inactive) | 83.2 µM (inactive) | 65 µM (inactive) | 93.8 µM (inactive) | > 100 µM (inactive) | 83 µM (inactive) | 54.6 µM (inactive) | 39.1 µM (inactive) | 79.8 µM (inactive) | > 100 µM (inactive) | > 100 µM (inactive) | 42.4 µM (inactive) | 19.7 µM (inactive) | 38.5 µM (inactive)
Cc1ccc2c(ccc3[nH]cc(CNc4ccc(NS(C)(=O)=O)cc4)c32)n1 | 15.6 µM (inactive) | 33.7 µM (inactive) | 26.7 µM (inactive) | 27.8 µM (inactive) | 18.3 µM (inactive) | 18.6 µM (inactive) | 18.5 µM (inactive) | 20.3 µM (inactive) | 14.9 µM (inactive) | 21.7 µM (inactive) | 23.8 µM (inactive) | 9.14 µM (inactive) | 22.9 µM (inactive) | 23.4 µM (inactive) | 18.6 µM (inactive) | 27.7 µM (inactive) | 12.3 µM (inactive) | 37.7 µM (inactive) | 19.1 µM (inactive) | 16.1 µM (inactive)
c1cc(C[S+]2CCCC2)sc1C[S+]1CCCC1 | 39.2 µM (inactive) | > 100 µM (inactive) | > 100 µM (inactive) | > 100 µM (inactive) | > 100 µM (inactive) | > 100 µM (inactive) | > 100 µM (inactive) | > 100 µM (inactive) | > 100 µM (inactive) | > 100 µM (inactive) | > 100 µM (inactive) | > 100 µM (inactive) | > 100 µM (inactive) | > 10 µM (inactive) | > 100 µM (inactive) | > 100 µM (inactive) | > 100 µM (inactive) | > 100 µM (inactive) | > 100 µM (inactive) | > 100 µM (inactive)
CC1CCN(CC(=O)N2c3ccccc3Sc3cc4ccccc4cc32)CC1 | > 100 µM (inactive) | > 100 µM (inactive) | > 100 µM (inactive) | > 100 µM (inactive) | 51.9 µM (inactive) | 36.4 µM (inactive) | > 100 µM (inactive) | > 100 µM (inactive) | > 100 µM (inactive) | > 100 µM (inactive) | > 100 µM (inactive) | > 100 µM (inactive) | > 100 µM (inactive) | > 100 µM (inactive) | > 100 µM (inactive) | > 100 µM (inactive) | > 100 µM (inactive) | > 100 µM (inactive) | > 100 µM (inactive) | > 100 µM (inactive)
C=C1C(=O)O[C@@H]2CC(CO)=C([C@@H](C)CCCO)[C@@H](OC(=O)/C(C)=C\C)[C@H]12 | 27.8 µM (inactive) | 15.1 µM (inactive) | 19.6 µM (inactive) | 14.5 µM (inactive) | 17.3 µM (inactive) | 10.8 µM (inactive) | 13.3 µM (inactive) | 28.4 µM (inactive) | 2.62 µM (inactive) | 22.2 µM (inactive) | 28.5 µM (inactive) | 11.9 µM (inactive) | 22.2 µM (inactive) | 12 µM (inactive) | 13.9 µM (inactive) | 25.9 µM (inactive) | 10.4 µM (inactive) | 18.8 µM (inactive) | 15.6 µM (inactive) | 16 µM (inactive)
FC(F)(F)c1nc2nc(Cl)c(Cl)nc2n1CCCN1CCOCC1 | 97.5 µM (inactive) | > 100 µM (inactive) | 32 µM (inactive) | 26.4 µM (inactive) | > 100 µM (inactive) | 13 µM (inactive) | 56 µM (inactive) | > 100 µM (inactive) | 29.4 µM (inactive) | 55.5 µM (inactive) | > 100 µM (inactive) | 25.4 µM (inactive) | 72.4 µM (inactive) | 33.7 µM (inactive) | 61.5 µM (inactive) | > 100 µM (inactive) | 47 µM (inactive) | > 100 µM (inactive) | 24 µM (inactive) | 50.6 µM (inactive)
CCN(CC)C(=S)SC(=S)N(CC)CC | 47.3 µM (inactive) | 35.4 µM (inactive) | 39.4 µM (inactive) | 30.5 µM (inactive) | 28.1 µM (inactive) | 26.4 µM (inactive) | 23.3 µM (inactive) | 33.7 µM (inactive) | 0.0951 µM (active) | 19.9 µM (inactive) | > 100 µM (inactive) | 36.6 µM (inactive) | > 62.8 µM (inactive) | 36.6 µM (inactive) | 5.07 µM (inactive) | > 100 µM (inactive) | 32.4 µM (inactive) | > 51.2 µM (inactive) | 41.6 µM (inactive) | 20.8 µM (inactive)
COc1cc(NS(C)(=O)=O)ccc1NCc1c[nH]c2ccc3nc(C)ccc3c12 | 20.3 µM (inactive) | 33.9 µM (inactive) | 40.6 µM (inactive) | 73.6 µM (inactive) | 48.9 µM (inactive) | 2.9 µM (inactive) | > 100 µM (inactive) | 45.7 µM (inactive) | 28.4 µM (inactive) | 44.3 µM (inactive) | 39.5 µM (inactive) | 22.5 µM (inactive) | 78.2 µM (inactive) | > 100 µM (inactive) | 42 µM (inactive) | 96.4 µM (inactive) | 24.2 µM (inactive) | 38.7 µM (inactive) | 47.8 µM (inactive) | 40.6 µM (inactive)
C=C1C(=O)O[C@H]2C3C(=C(C)CC[C@@H]12)C(=O)[C@@H]1OC31C (stereo not given in full) | 11.4 µM (inactive) | 2.6 µM (inactive) | 2.93 µM (inactive) | 5.45 µM (inactive) | 5.73 µM (inactive) | 1.36 µM (inactive) | 2.2 µM (inactive) | 7.48 µM (inactive) | 1.53 µM (inactive) | 1.58 µM (inactive) | 10.4 µM (inactive) | 1.56 µM (inactive) | 2.43 µM (inactive) | 2.34 µM (inactive) | 1.59 µM (inactive) | 15.4 µM (inactive) | 1.81 µM (inactive) | 2.27 µM (inactive) | 2.24 µM (inactive) | 2.04 µM (inactive)

From ChEMBL document CHEMBL1201862, “PubChem BioAssay data set” (2004)
